Counter-ions that a name gives are not always drawn.
What follows are compounds tested on MTT (mouse pheochromocytoma) (assay: IC50 of cell viability (ATP content)). Settings: (24 or 48 h).
How it was run: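 Library compounds in DMSO (23 nl by pintool, 8 concentrations, final 0.5 nM to 46 µM) were applied for 24 or 48 hrs to MTT mouse pheochromocytoma cells that had been cultured overnight at 37°C, 5% CO2 in white 1536-well plates. Cell viability was measured by CellTiter-Glo ATP luminescence, read after 15 minutes, with positive-control wells set at 100% and DMSO wells at 0%. A four-parameter logistic fit of the normalised signals yielded the IC50.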

Compound	IC50 of cell viability
COc1ccc2c3c1O[C@H]1[C@@H](O)C=C[C@H]4C(C2)NCCC341 (single isomer, unassigned; (-)) [(-)-NORCODEINE]	> 46 µM
C[C@]12CC[C@H]3[C@@H](CCC4=CC(=O)CC[C@@H]43)[C@@H]1CC[C@@H]2O [Norandrostenolone]	> 46 µM
CN[S+](=O)([O-])Cc1ccc2[nH]cc(CCN(C)C)c2c1 [SUMATRIPTAN]	> 46 µM
CC(C)NCC(O)c1ccccc1Cl (stereo unspecified) [CLORPRENALINE HYDROCHLORIDE]	> 46 µM
Nc1ccccc1C(=O)O [o-Anthranilic acid]	> 46 µM
Cc1nnc2n1-c1sc(CCc3ccc(CC(C)C)cc3)cc1C(c1ccccc1Cl)=NC2C (stereo unspecified) [ISRAPAFANT]	> 46 µM
C[C@H]1C[C@H]2[C@@H]3CC[C@](O)(C(=O)COC(=O)CCC(O)=O)[C@@]3(C)C[C@H](O)[C@@H]2[C@@]\4(C)/C=C\C(=O)\C=C14 [6a-Methylprednisolone 21-hemisuccinate sodium salt]	> 46 µM
O=[N+]([O-])c1cc([As](=O)(O)O)ccc1O [Roxarsone]	> 46 µM
O=C(O)c1ccccc1OP(=O)(O)O [FOSFOSAL]	> 46 µM
Cc1ccc(O)cc1 [p-Cresol]	> 46 µM
COc1c2c(cc3c1OCO3)CCN(C)C2 [Hydrocotarnine hydrobromide]	> 46 µM
COc1ccccc1O [o-methoxyphenol]	> 46 µM
CC(CCc1ccccc1)NC(C)C(O)c1ccc(O)cc1 (stereo unspecified) [NYLIDRIN]	> 46 µM
CC(C)C(=O)OCC(=O)[C@@]12OC(C3CCCCC3)O[C@@H]1CC1C3CCC4=CC(=O)C=C[C@]4(C)C3[C@@H](O)C[C@@]12C (stereo partly specified) [CICLESONIDE]	> 46 µM
Cc1ccc(S(=O)(=O)NC(=O)NC2CCCCCCC2)cc1 [GLYOCTAMIDUM]	> 46 µM
O=C/1O[C@@]23CC(/C=C\C2=C1)N4CCCCC34 (stereo partly specified) [SECURININE]	> 46 µM
O=C1OC2C(O)C(O)OC2C1O (stereo unspecified) [Mannuronic acid lactone]	> 46 µM
Oc1ccc(C(O)CNCCCCCCNCC(O)c2ccc(O)c(O)c2)cc1O (stereo unspecified) [HEXOPRENALINE SULFATE]	> 46 µM
CC1(S(=O)(=O)[O-])CC(=O)c2ccccc2C1=O (stereo unspecified) [Menadione sodium bisulfite]	> 46 µM
C[C@@]12CC[C@H]3[C@@H](CC[C@@H]4C[C@H]5S[C@H]5C[C@]43C)[C@H]1CC[C@H]2O [Epitiostanol]	> 46 µM

Compound	IC50 of cell viability
CCOC(=O)NC(C)(C)Cc1ccc(Cl)cc1 [Cloforex]	> 46 µM
CN(C)CCC[C@@]1(c2ccc(F)cc2)OCc2cc(C#N)ccc21.O=C(O)C(=O)O [ESCITALOPRAM OXALATE]	> 46 µM
CC[C@]1(c2cccc(O)c2)CCCCN(C)C1 [Meptazinol hydrochloride]	> 46 µM
CN(C)[C@H]\1[C@@H]2[C@@H](O)[C@@H]\3C(=C)C4=C(C(=CC=C4)O)C(=O)C3=C(\O)[C@@]2(O)C(=O)\C(=C1O)C(N)=O [Methacycline hydrochloride]	> 46 µM
ClC1=CC=C2N(CC3CC3)C(=O)C\N=C(\C4=CC=CC=C4)C2=C1 [PRAZEPAM]	> 46 µM
CC(C)(C)c1ccc(O)c(O)c1 [p-tert-Butylcatechol]	> 46 µM
N=C(N)NCCCCNC(=N)N.O=[S+]([O-])(O)O [ARCAINE SULFATE]	> 46 µM
CN1CC[C@]23c4c5ccc(O)c4OC2C(O)CCC3[C@H]1C5 (stereo partly specified) [Dihydromorphine]	> 46 µM
O=C1c2ccccc2CN2C(=O)c3ccccc3CN12 [Diftalone]	> 46 µM
OC(c1ccccc1)(c1ccccc1)C1CN2CCC1CC2 (stereo unspecified) [Quifenadine]	> 46 µM
O=C1OC2(c3ccc(O)cc3Oc3cc(O)ccc32)c2ccccc21 [Fluorescein (free acid)]	> 46 µM
CN(C)[C@@H](Cc1ccccc1)c1ccccc1 [LEFETAMINE HYDROCHLORIDE]	> 46 µM
CCCN1CCC[C@@H]2Cc3n[nH]cc3C[C@H]21 [(-)-QUINPIROLE]	> 46 µM
CC/C=C\C/C=C\C/C=C\C/C=C\C/C=C\C/C=C\CCC(=O)O [DOCOSAHEXAENOIC ACID]	> 46 µM
NCCCC[C@H](N[C@@H](CCc1ccccc1)C(=O)O)C(=O)N1CCC[C@@H]1C(=O)O.O.O [Lisinopril]	> 46 µM
COc1ccc(Cc2nccc3cc(OC)c(OC)cc23)cc1OC [Papaverine hydrochloride]	> 46 µM
CC(=O)O[C@H]1C[C@@H]2CC[C@@H]3[C@H](CC[C@@]4(C)[C@H]3C[C@H]([N+]3(C)CCCCC3)[C@@H]4OC(C)=O)[C@@]2(C)C[C@@H]1N1CCCCC1 [VECURONIUM BROMIDE]	> 46 µM
O=C(O)Cc1cccc2ccccc12 [1-Naphthalene acetic acid]	> 46 µM
CN(C/C=C/C#CC(C)(C)C)Cc1cccc2ccccc12 [Terbinafine]	> 46 µM
CC(C)N(CC[C@@](C(N)=O)(c1ccccc1)c1ccccn1)C(C)C [Disopyramide]	> 46 µM

Results, then the compound that gave them:

IC50 of cell viability	Compound
> 46 µM	C[C@H]1C[S+](=O)([O-])CCN1/N=C\c1ccc([N+](=O)[O-])o1 [Nifurtimox]
> 46 µM	Nc1ccncc1N [3,4-DIAMINOPYRIDINE PHOSPHATE]
> 46 µM	CN1CC(O)C2=C/C(=N/NC(N)=O)C(=O)C=C21 (stereo unspecified) [Carbazochrome]
> 46 µM	CCCc1c2oc(C(=O)O)cc(=O)c2cc2c(=O)cc(C(=O)O)n(CC)c12 [Nedocromil]
> 46 µM	NC(=O)OC[C@@H]1[C@H](NC(=O)/C(=N/OCC(=O)[O-])c2csc(N)n2)C(=O)N1S(=O)(=O)[O-] [CARUMONAM SODIUM]
> 46 µM	CCCCOc1cc(C(=O)OCCN(CC)CC)ccc1N [Benoxinate hydrochloride]
> 46 µM	CCN1\C=C(\C(O)=O)C(=O)C2=C1N=C(N=C2)N3CCCC3 [Piromidic acid]
> 46 µM	CCNC(=O)N1CCN(CCCC(c2ccc(F)cc2)c2ccc(F)cc2)CC1.Cl [Amperozide hydrochloride]
> 46 µM	CC[C@@H]1C(=O)OC[C@@H]1Cc1cncn1C [PILOCARPINE]
> 46 µM	O=C(Cn1cnnn1)N[C@@H]1C(=O)N2C(C(=O)O)=C(CSc3nncs3)CS[C@H]12 [Ceftezole sodium]
> 46 µM	Cc1ccccc1CNc1ncnc2c1ncn2C1OC(CO)C(O)C1O (stereo unspecified) [Metrifudil]
> 46 µM	CCN(CC)CCSC(=O)C(c1ccccc1)c1ccccc1 [TIFENAMILUM]
> 46 µM	CCOC(=O)c1ccc(O)cc1 [Ethylparaben]
> 46 µM	NC/1=N/C(=O)N(/C=C1)[C@H]2CO[C@H](CO)O2 [TROXACITABINE (Troxatyl)]
> 46 µM	CCC(=O)c1ccc2c(c1)N(CCCN1CCN(CCO)CC1)c1ccccc1S2 [CARPHENAZINE MALEATE]
> 46 µM	CCN1CCC[C@@H]1CNC(=O)c1cc([S+](=O)([O-])CC)ccc1OC [Sultopride Hydrochloride]

IC50 of cell viability	Compound
> 46 µM	CC1(C)NC(=O)N(c2ccc([N+](=O)[O-])c(C(F)(F)F)c2)C1=O [Nilutamide]
> 46 µM	CCCC(=O)O[C@@]1(CCC2[C@@H]3CCC/4=C/C(=O)CC[C@]4(C)C3C(O)C[C@@]12C)C(=O)CO (stereo partly specified) [HYDROCORTISONE BUTYRATE]
> 46 µM	NC(=O)C1=CC=[N+](C\C2=C(\[N@]3[C@@H](SC2)[C@H](NC(=O)CC4=CC=CS4)C3=O)C([O-])=O)C=C1 [Cefalonium]
> 46 µM	Cc1ccc(NC(=O)c2ccc(CN3CCN(C)CC3)cc2)cc1Nc1nccc(-c2cccnc2)n1 [IMATINIB MESYLATE]
> 46 µM	COc1cccc2c1C(=O)c1c(O)c3c(c(O)c1C2=O)C[C@](O)(C(=O)CO)C[C@@H]3O[C@H]1C[C@H](N)[C@@H](O)[C@H](C)O1 [Adriamycin-DNA hydrochloride]
> 46 µM	[H][C@](C)(O)[C@@]1([H])C(=O)[N@]2C(C([O-])=O)=C(SC3CN4C=NC=[N+]4C3)[C@@]([H])(C)C12[H] (stereo partly specified) [Biapenem]
> 46 µM	N#C/C(=C1/SC[C@@H](c2ccc(Cl)cc2Cl)S1)n1ccnc1 [LULICONAZOLE]
> 46 µM	CCN(CC)CCN1C(=O)\C(=N/C2=CC=CC=C12)CC3=CC=C(OC)C=C3 [Caroverine hydrochloride]
> 46 µM	CC(=O)Oc1cccc(C)c1 [CRESYL ACETATE, M-]
> 46 µM	CCCCC[C@H](O)/C=C/[C@H]1[C@H](O)CC(=O)[C@@H]1C/C=C\CCCC(=O)O [DINOPROSTONE]
> 46 µM	CC1CCC2=C3N1\C=C(C(O)=O)/C(=O)C3=CC(=C2)F (stereo unspecified) [FLUMEQUINE]
> 46 µM	CN1/C=C(/[S+](C)[O-])C(=O)C2=C1C=C(F)C=C2 (stereo unspecified) [Flosequinan]
> 46 µM	CN(C)CCCN1c2ccccc2CCc2ccccc21 [IMIPRAMINE]
> 46 µM	CCN(CC)CCNC(=O)COc1ccc(OC)cc1.Cl [MEFEXAMIDE]
> 46 µM	NC/1=N/C(=O)N(C[C@@H](CO)OC[P](O)(O)=O)/C=C1 [CIDOFOVIR]

Source: the supplement of paper PMC3974653
